According to the supplement of paper PMC10307832:

Tests used:
Assay in all cases: relative viability (nuclei count vs DMSO), 5 days (fraction); higher = more cells survive
[1] = compound: COc1nc(N)nc2c1ncn2[C@@H]1O[C@H](CO)[C@@H](O)[C@@H]1O [Nelarabine] + CS(=O)(=O)CCNCc1ccc(-c2ccc3ncnc(Nc4ccc(OCc5cccc(F)c5)c(Cl)c4)c3c2)o1 [Lapatinib] (partner 2 µM)
How it was run: (§1)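 Relative viability divides the nuclei count in treated wells by that in vehicle wells. Lung cancer cell lines were seeded in 1536-well plates, dosed by pin tool the next day, and fixed and stained after 5 days in one step with final 0.05% Triton X-100, 1% formaldehyde and 1 ug/ml Hoechst. Dosing was a single drug or a fixed anchor-drug dose plus five library-drug doses (not always all listed) in √10 steps, and values are medians of duplicate plates imaged at 4×.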

[2] = compound: C=CCn1c(=O)c2cnc(Nc3ccc(N4CCN(C)CC4)cc3)nc2n1-c1cccc(C(C)(C)O)n1 [Adavosertib] + Cc1cc(Nc2cc(N3CCN(C)CC3)nc(Sc3ccc(NC(=O)C4CC4)cc3)n2)n[nH]1 [Tozasertib] (partner 0.1 µM)
How it was run: as §1

[3] = compound: COc1nc(N)nc2c1ncn2[C@@H]1O[C@H](CO)[C@@H](O)[C@@H]1O [Nelarabine] + CC(C)C[C@H](NC(=O)[C@H](Cc1ccccc1)NC(=O)c1cnccn1)B(O)O [Bortezomib] (partner 0.002 µM)
How it was run: as §1

[4] = compound: C=CCn1c(=O)c2cnc(Nc3ccc(N4CCN(C)CC4)cc3)nc2n1-c1cccc(C(C)(C)O)n1 [Adavosertib] + N=C(N)NC(=N)NCCc1ccccc1 [Phenformin] (partner 250 µM)
How it was run: as §1

| Cell Line | relative viability ([1]; first compound 0.01 µM) | relative viability ([1]; first compound 0.03162 µM) | relative viability ([1]; first compound 0.1 µM) | relative viability ([1]; first compound 0.3162 µM) | relative viability ([1]; first compound 1 µM) | relative viability ([2]; first compound 0.01 µM) | relative viability ([2]; first compound 0.03162 µM) | relative viability ([2]; first compound 0.1 µM) | relative viability ([2]; first compound 0.3162 µM) | relative viability ([3]; first compound 0.01 µM) | relative viability ([3]; first compound 0.03162 µM) | relative viability ([3]; first compound 0.1 µM) | relative viability ([3]; first compound 0.3162 µM) | relative viability ([3]; first compound 1 µM) | relative viability ([4]; first compound 0.01 µM) | relative viability ([4]; first compound 0.03162 µM) | relative viability ([4]; first compound 0.1 µM) | relative viability ([4]; first compound 0.3162 µM) |
| --- | --- | --- | --- | --- | --- | --- | --- | --- | --- | --- | --- | --- | --- | --- | --- | --- | --- | --- |
| EKVX | 0.2 | 0.155 | 0.168 | 0.204 | 0.21 | 0.424 | 0.451 | 0.436 | 0.469 | 1.35 | 0.853 | 1.05 | 1.25 | 1.14 | 0.249 | 0.238 | 0.227 | 0.234 |
| LOU-NH91 | 0.817 | 0.633 | 0.692 | 0.775 | 0.788 | 0.694 | 0.69 | 0.735 | 0.62 | 0.447 | 0.519 | 0.553 | 0.474 | 0.513 | 0.661 | 0.743 | 0.687 | 0.725 |
| NCI-H647 | 1.37 | 0.807 | 1.11 | 1.34 | 1.14 | 0.273 | 0.276 | 0.245 | 0.317 | 1.28 | 0.988 | 0.897 | 1.29 | 1.14 | 0.495 | 0.533 | 0.354 | 0.249 |
| NCI-H3122 | 1.08 | 0.891 |  | 1.08 | 1.01 | 0.414 | 0.383 | 0.462 | 0.469 | 1.03 | 0.872 |  | 1.03 | 1.02 | 0.365 | 0.402 | 0.355 | 0.365 |
| NCI-H650 | 0.97 | 0.842 | 0.929 | 1.07 | 0.887 | 0.75 | 0.774 | 0.806 | 0.757 | 1.13 | 0.703 | 0.758 | 0.977 | 0.897 | 0.422 | 0.498 | 0.458 | 0.377 |
| H3255 | 0.248 | 0.267 | 0.226 | 0.235 | 0.201 | 0.63 | 0.721 | 0.421 | 0.559 | 1.06 | 0.868 | 0.897 | 0.722 | 0.696 | 0.351 | 0.369 | 0.363 | 0.336 |
| SW 1573 | 1.14 | 1.13 | 1.11 | 1.18 | 1.2 | 0.221 | 0.234 | 0.192 | 0.17 | 1.63 | 1.12 | 1.18 | 1.25 | 1.1 | 0.384 | 0.564 | 0.408 | 0.324 |
| HCC-15 | 0.987 | 0.798 | 0.928 | 0.883 | 0.9 | 0.385 | 0.409 | 0.481 | 0.444 | 1.33 | 0.917 | 1.18 | 1.11 | 1.14 | 0.474 | 0.471 | 0.494 | 0.504 |
| PC-3 [JPC-3] | 0.508 | 0.373 | 0.439 | 0.451 | 0.436 | 0.891 | 0.874 | 0.925 | 0.897 | 1.08 | 0.905 | 0.826 | 0.743 | 0.776 | 0.458 | 0.46 | 0.498 | 0.488 |
| NCI-H1915 | 1.19 | 0.867 | 1.01 | 1.09 | 0.997 | 0.433 | 0.441 | 0.509 | 0.524 | 1.25 | 0.871 | 1.04 | 0.975 | 0.96 | 0.364 | 0.367 | 0.388 | 0.365 |
| PC-14 | 0.327 | 0.342 | 0.307 | 0.328 | 0.353 | 0.6 | 0.566 | 0.843 | 0.69 | 1.14 | 0.898 | 0.854 | 0.828 | 0.841 | 0.508 | 0.619 | 0.671 | 0.291 |
| COR-L 105 | 0.362 | 0.306 | 0.374 | 0.285 | 0.368 | 0.353 | 0.374 | 0.385 | 0.319 | 1.02 | 0.912 | 0.683 | 0.678 | 0.979 | 0.558 | 0.443 | 0.467 | 0.409 |
| UMC-11 | 1.05 | 0.863 | 1.02 | 1.02 | 1.14 | 0.19 | 0.201 | 0.196 | 0.181 | 0.928 | 0.572 | 0.924 | 0.816 | 0.535 | 0.341 | 0.315 | 0.318 | 0.29 |
| NCI-H1975 | 1.27 | 0.958 | 0.92 | 1.11 | 0.982 | 0.842 | 0.794 | 0.835 | 0.525 | 0.362 | 0.258 | 0.429 | 0.399 | 0.404 | 0.419 | 0.392 | 0.389 | 0.309 |
| LXF-289 | 0.97 | 0.883 | 0.884 | 0.941 | 0.903 | 0.174 | 0.192 | 0.205 | 0.261 | 1.13 | 0.99 | 0.995 | 1 | 1.01 | 0.528 | 0.553 | 0.527 | 0.561 |
| NCI-H1993 | 0.836 | 0.774 | 0.81 | 0.67 | 0.785 | 0.633 | 0.598 | 0.658 | 0.666 | 1.25 | 1.21 | 1.27 | 1.13 | 1.04 | 0.527 | 0.537 | 0.475 | 0.589 |
| NCI-H23 | 1.5 | 1.1 | 1.06 | 1.17 | 1.18 | 0.326 | 0.321 | 0.283 | 0.192 | 1.38 | 0.97 | 1.13 | 0.957 | 1.1 | 0.732 | 0.759 | 0.838 | 0.585 |
